US20240270762A1, “PENICILLIN-BINDING PROTEIN INHIBITORS” (priority 2021, published 2024)
In brackets after ≈: the same amount, converted by molar mass.

Assays:
[1] = biological target: T1, PBP1a from Acinetobacter baumannii (ATCC 19606) (Acinetobacter baumannii, UniProt A0ABX6CK30); experiment: Bocillin-FL fluorescence polarization competition binding, A. baumannii PBP1a; settings: fluorescence polarization competition binding assay using Bocillin-FL; read-out: A. baumannii PBP1a Potency
T1 sequence (A0ABX6CK30 1-851): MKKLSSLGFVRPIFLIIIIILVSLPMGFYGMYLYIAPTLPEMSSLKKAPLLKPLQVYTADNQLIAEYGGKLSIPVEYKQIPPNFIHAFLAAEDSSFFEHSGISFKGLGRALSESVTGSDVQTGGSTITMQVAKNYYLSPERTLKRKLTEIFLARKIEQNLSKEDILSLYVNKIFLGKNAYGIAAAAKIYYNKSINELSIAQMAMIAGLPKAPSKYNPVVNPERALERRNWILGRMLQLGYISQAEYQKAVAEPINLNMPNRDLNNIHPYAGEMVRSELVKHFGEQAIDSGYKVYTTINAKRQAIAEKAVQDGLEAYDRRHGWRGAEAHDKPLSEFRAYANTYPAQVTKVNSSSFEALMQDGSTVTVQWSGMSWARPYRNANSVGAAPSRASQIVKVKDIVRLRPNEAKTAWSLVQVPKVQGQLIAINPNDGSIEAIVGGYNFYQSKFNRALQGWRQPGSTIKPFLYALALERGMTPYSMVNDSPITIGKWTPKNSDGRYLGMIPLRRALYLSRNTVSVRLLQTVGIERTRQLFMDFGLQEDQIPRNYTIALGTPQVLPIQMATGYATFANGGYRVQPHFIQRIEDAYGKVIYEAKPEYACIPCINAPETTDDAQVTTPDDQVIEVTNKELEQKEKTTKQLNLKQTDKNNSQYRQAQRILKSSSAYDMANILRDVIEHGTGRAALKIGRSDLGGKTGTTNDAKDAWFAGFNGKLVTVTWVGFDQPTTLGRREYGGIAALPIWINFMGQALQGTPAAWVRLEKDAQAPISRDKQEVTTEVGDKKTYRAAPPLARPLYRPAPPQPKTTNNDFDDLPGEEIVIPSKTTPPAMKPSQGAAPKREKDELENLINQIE
From the text: To determine the ability of boronic acid-based test PBP inhibitors to bind Penicillin Binding Proteins (PBPs), Bocillin-FL (fluorescently-labeled penicillin V; ThermoFisher Scientific) was used in a fluorescence polarization (FP) competition binding assay to assess inhibitor binding to PBP3 from Escherichia coli (K-12), PBP3 from Pseudomonas aeruginosa (PAO1), PBP1a and PBP3 from Acinetobacter baumannii (ATCC 19606), and PBP2 from Neisseria gonorrhoeae (FA19). PBPs were cloned and purified as described previously (E. coli PBP3, King, D. T, et al., ACS Infectious Diseases 2015, 1, 175-184; P. aeruginosa PBP3, Han et. al., PNAS 2010, 107 (51), 22002-22007; A. baumannii PBPs, Penwell et. al., Antimicrob. Agents Chemother. 2015, 59 (3), 1680-1689; N. gonorrhoeae PBP2, Singh et. al., J. Biol. Chem. 2019, 294 (38), 14020-14032). To establish assay conditions for competition binding, enzyme titration/saturation binding experiments were initially performed. Bocillin-FL was prepared at 0.2 μM in a buffer comprised of 50 mM Hepes (pH 8.0), 300 mM NaCl and 10% (v/v) glycerol for reactions with E. coli, P. aeruginosa and N. gonorrhoeae PBPs, and 25 mM Tris (pH 8.0), 200 mM NaCl, 10% (v/v) glycerol and 0.005% (v/v) Tween 20 for reactions with A. baumannii PBPs. Saturation binding was performed by mixing 40 μl of PBP solutions ranging in concentrations from 0-24 μM with 40 μl of the 0.2 μM Bocillin-FL solution, in individual wells of a black 384-well microplate. FP was measured immediately upon mixing (Excitation, 490 nm; Emission, 520 nm; g-factor, 0.96), using a Cytation3 (BioTek) microplate reader and measured continuously for up to 120 minutes. The FP response stabilized after 15 minutes for P. aeruginosa and A. baumannii PBP3, 30 minutes for E. coli PBP3 and A. baumannii PBP1a, and less than 1 minute for N. gonorrhoeae PBP2. […] The competition binding assay (80 μl final volume) was validated using beta-lactams and PBPs at final concentrations of: 1.5 μM for E. coli PBP3; 0.75 μM for P. aeruginosa PBP3; 1 μM for A. baumannii PBP1a; 0.2 μM for A. baumannii PBP3; and 0.25 μM for N. gonorrhoeae PBP2. Bocillin-FL was at 0.1 μM (0.05 μM with A. baumannii PBP1a) and beta-lactam concentrations ranged from 0-1,000 μM. E. coli PBP3 was incubated with increasing concentrations of ampicillin in a black 384-well microplate (Corning) for 30 minutes. P. aeruginosa PBP3 was incubated for 15 minutes with aztreonam, whereas A. baumannii PBP1a and PBP3 were incubated for 15 minutes with meropenem, and then Bocillin-FL was added followed immediately by the FP measurement for up to 60 minutes. […] The beta-lactam potency was reported as the concentration of beta-lactam required to reduce the amount of PBP bound-Bocillin-FL by 50% (EC50). […] The EC50 of aztreonam was determined to be <0.5 μM for P. aeruginosa PBP3. […] Binding assays for boronic acid PBP inhibitors were performed in an identical fashion for the respective PBPs.

P. aeruginosa ATCC 35151 = experiment: microbe, parasite or virus in culture; format: cell-based; settings: Pseudomonas aeruginosa, ATCC35151, read-out: Minimum inhibitory concentration, P. aeruginosa ATCC 35151
[2] = test system: P. aeruginosa (ΔmexAB-oprM); experiment: Broth microdilution MIC in iron-depleted CAMHB (IDM); format: cell-based; settings: Pseudomonas aeruginosa; iron-depleted CAMHB (IDM); […]; read-out: Minimum inhibitory concentration, P. aeruginosa ΔmexAB-oprM
P. aeruginosa CDC-0054 = experiment: microbe, parasite or virus in culture; format: cell-based; settings: Pseudomonas aeruginosa, CDC0054, read-out: Minimum inhibitory concentration, P. aeruginosa CDC-0054
P. aeruginosa CDC-0090 = experiment: microbe, parasite or virus in culture; format: cell-based; settings: Pseudomonas aeruginosa, CDC0090, read-out: Minimum inhibitory concentration, P. aeruginosa CDC-0090
A. baumannii CDC-0045 = experiment: microbe, parasite or virus in culture; format: cell-based; settings: Acinetobacter baumannii, CDC0045, read-out: MIC, A. baumannii CDC-0045
[3] = test system: B. humptydooensis ATCC BAA-2767; experiment: microbe, parasite or virus in culture; format: cell-based; settings: Burkholderia humptydooensis, ATCCBAA2767, read-out: Minimum inhibitory concentration (MIC), B. humptydooensis ATCC BAA-2767
P. aeruginosa CDC-0110 = experiment: microbe, parasite or virus in culture; format: cell-based; settings: Pseudomonas aeruginosa, CDC0110, read-out: Minimum inhibitory concentration, P. aeruginosa CDC-0110

O=C(O)c1cccc2c1OB(O)[C@@H](NC(=O)C(NC(=O)N1CCN(Cc3ccc(O)c(O)c3Cl)C(=O)C1=O)c1ccc(P(=O)(O)O)cc1)C2 (stereo partly drawn) [Example 24, (3R)-3-(2-(4-(2-chloro-3,4-dihydroxybenzyl)-2,3-dioxopiperazine-1-carboxamido)-2-(4-phosphonophenyl)acetamido)-2-hydroxy-3,4-dihydro-2H-benzo[e][1,2]oxaborinine-8-carboxylic acid]
IC50 [1]: > 250 µM
MIC (P. aeruginosa ATCC 35151): < 1 µg/mL
MIC [2]: < 1 µg/mL
MIC (P. aeruginosa CDC-0054): < 1 µg/mL
MIC (P. aeruginosa CDC-0090): 8 to 16 µg/mL (≈ 11.2 to 22.3 µM)
MIC (A. baumannii CDC-0045): < 1 µg/mL
MIC [3]: < 1 µg/mL
MIC (P. aeruginosa CDC-0110): < 1 µg/mL

O=C(O)c1c(F)ccc2c1OB(O)[C@@H](NC(=O)C(NC(=O)N1CCN(Cc3ccc(O)c(O)c3Cl)C(=O)C1=O)c1ccc(P(=O)(O)O)c(F)c1)C2 (stereo partly drawn) [Example 23, (3R)-3-(2-(4-(2-chloro-3,4-dihydroxybenzyl)-2,3-dioxopiperazine-1-carboxamido)-2-(3-fluoro-4-phosphonophenyl)acetamido)-7-fluoro-2-hydroxy-3,4-dihydro-2H-benzo[e][1,2]oxaborinine-8-carboxylic acid]
IC50 [1]: > 250 µM
MIC (P. aeruginosa ATCC 35151): < 1 µg/mL
MIC [2]: < 1 µg/mL
MIC (P. aeruginosa CDC-0054): < 1 µg/mL
MIC (P. aeruginosa CDC-0090): 8 to 16 µg/mL (≈ 10.6 to 21.3 µM)
MIC (A. baumannii CDC-0045): < 1 µg/mL
MIC [3]: < 1 µg/mL
MIC (P. aeruginosa CDC-0110): < 1 µg/mL
